Source: patent US20080104722A1, “DISEASE MODEL ANIMALS OF METABOLIC SYNDROME AND A METHOD OF SCREENING PREVENTIVE AND THERAPEUTIC AGENTS FOR METABOLIC SYNDROME USING THE SAME” (REDOX BIOSCIENCE INC., priority 2006, published 2008)

Columns and labels:
Wild type mice = assay: Glucose or oleic acid supplementation in drinking water while deprived of other food, wild type mice; type: in vivo, mouse; details: 20% glucose or 10% oleic acid in drinking water, deprived of other food (data not shown)
Source text: (§1) Glucose and fatty acids are known to be the major energy sources from foods. The anomaly observed in TBP-2^−/− mice strongly indicates the occurrence of nutritional dysmetabolism. To examine this hypothesis, these mice were housed with free access to 20% glucose or 10% oleic acid in drinking water, while deprived of other food.

TBP-2^−/− mice = assay: Glucose or oleic acid supplementation in drinking water while deprived of other food, TBP-2 knockout mice; type: in vivo
Procedure: Blood was collected from the tail veins. Triglyceride concentrations were measured using a Wako Triglyceride Test kit according to the manufacturer's instructions (Wako Pure Chemical Industries, Ltd.). Serum insulin levels were quantified using a Mouse Insulin ELISA kit (Shibayagi Co. Ltd.). The other blood assays were performed by Falco Biosystems Ltd. The liver was removed under anesthesia at appropriate time points, and paraffin sections were prepared. Standard hematoxylin-eosin and Oil Red O staining was performed.
as §1

CCCCCCCC/C=C\CCCCCCCC(=O)O [oleic acid]
survival of wild type mice (Wild type mice): able to survive
rescue (survival) of TBP-2^−/− mice (TBP-2^−/− mice; 10% oleic acid in drinking water, deprived of other food (FIG. 9A)): not rescued
symptoms compared with fasted TBP-2^−/− mice (TBP-2^−/− mice; oleic acid supplementation (data not shown)): identical symptoms
